Measurements published in patent publication US12252488B2 (Nimbus Saturn, Inc., priority 2021, dated 2025).
pIC50: −log10 of the molar value.

Target: T1, HPK1 (Homo sapiens, UniProt Q92918)
T1 construct: purchased Invitrogen
Assay: HPK1 biochemical enzyme assay (microfluidic mobility shift assay)
Conditions: 1000 uM (1 mM) ATP; Caliper mobility shift; 1.5 nM HPK1; 30 min preincubation; read-out: HPK1 1000UMATP caliper IC50
In short: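 IC50 values, grouped into activity categories, come from 10-point titrations (top final 3 μM) preincubated 30 min with 1.5 nM enzyme and substrate at pH 7.4. ATP (1 mM), substrate (1 μM) and MgCl2 (5 mM) then added; after 60 min at RT, product separated by microfluidic mobility shift.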

T1 sequence (Q92918 whole entry): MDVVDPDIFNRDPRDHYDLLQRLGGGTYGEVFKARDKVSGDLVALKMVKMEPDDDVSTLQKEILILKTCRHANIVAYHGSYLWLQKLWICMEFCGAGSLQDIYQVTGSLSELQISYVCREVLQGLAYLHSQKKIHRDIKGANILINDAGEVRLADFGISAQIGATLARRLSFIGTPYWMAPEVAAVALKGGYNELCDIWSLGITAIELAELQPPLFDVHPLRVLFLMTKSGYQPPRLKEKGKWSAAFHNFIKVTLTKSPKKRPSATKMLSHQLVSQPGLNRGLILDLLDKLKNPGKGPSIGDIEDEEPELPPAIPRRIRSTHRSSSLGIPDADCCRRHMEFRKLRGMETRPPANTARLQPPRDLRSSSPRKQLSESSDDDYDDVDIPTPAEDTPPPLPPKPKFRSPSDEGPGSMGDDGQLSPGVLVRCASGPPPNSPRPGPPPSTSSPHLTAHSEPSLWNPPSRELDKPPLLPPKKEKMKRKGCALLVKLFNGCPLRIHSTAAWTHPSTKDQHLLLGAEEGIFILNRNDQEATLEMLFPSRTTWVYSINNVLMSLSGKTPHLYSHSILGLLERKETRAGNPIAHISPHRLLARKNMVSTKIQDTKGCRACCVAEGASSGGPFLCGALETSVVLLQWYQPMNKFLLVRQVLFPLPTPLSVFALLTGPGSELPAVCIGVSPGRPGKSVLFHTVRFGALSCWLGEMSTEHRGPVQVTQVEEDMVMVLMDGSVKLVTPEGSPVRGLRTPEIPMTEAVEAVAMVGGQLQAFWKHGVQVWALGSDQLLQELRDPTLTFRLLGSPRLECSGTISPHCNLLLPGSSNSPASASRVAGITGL

SMILES	pIC50
CCn1ccc(Nc2cc(-c3cc(OC)c(C(=O)N4CCCCC4)cc3F)nc3cc[nH]c(=O)c23)nc1=O [I-228, 4-((1-ethyl-2-oxo-1,2-dihydropyrimidin-4-yl)amino)-2-(2-fluoro-5-methoxy-4-(piperidine-1-carbonyl)phenyl)-1,6-naphthyridin-5(6H)-one]	≥ 7.00
O=C(C1CC1)N1CCC2(CCN(c3cc(Nc4ccc(N5CCC(O)CC5)cn4)c4c(=O)[nH]ccc4n3)CC2)C1 [I-233, 2-[2-(cyclopropanecarbonyl)-2,8-diazaspiro[4.5]decan-8-yl]-4-[[5-(4-hydroxy-1-piperidyl)-2-pyridyl]amino]-6H-1,6-naphthyridin-5-one]	≥ 7.00
COc1cc(-c2cc(Nc3cccc(N4CCNCC4)n3)c3c(=O)[nH]ccc3n2)c(F)cc1C(=O)N1CCCCC1 [I-234, 2-[2-fluoro-5-methoxy-4-(piperidine-1-carbonyl)phenyl]-4-[(6-piperazin-1-yl-2-pyridyl)amino]-6H-1,6-naphthyridin-5-one]	≥ 7.00
O=c1[nH]ccc2nc(N3CCC4(CCNC4)CC3)cc(Nc3ccc(N4CCC(O)CC4)cn3)c12 [I-235, 2-(2,8-diazaspiro[4.5]decan-8-yl)-4-[[5-(4-hydroxy-1-piperidyl)-2-pyridyl]amino]-6H-1,6-naphthyridin-5-one]	≥ 7.00
O=c1[nH]ccc2nc(N3CCC4(CCCN4)CC3)cc(Nc3ccc(N4CCC(O)CC4)cn3)c12 [I-236, 2-(1,8-diazaspiro [4.5]decan-8-yl)-4-[[5-(4-hydroxy-1-piperidyl)-2-pyridyl]amino]-6H-1,6-naphthyridin-5-one]	6.00 to 7.00
O=c1[nH]ccc2nc(N3CCC4(CCCNC4)CC3)cc(Nc3ccc(N4CCC(O)CC4)cn3)c12 [I-239, 2-(2,9-diazaspiro [5.5]undecan-9-yl)-4-[[5-(4-hydroxy-1-piperidyl)-2-pyridyl]amino]-6H-1,6-naphthyridin-5-one]	6.00 to 7.00
CCC1(C(=O)Nc2ccc(-c3cc(Nc4ccc(N5CCNCC5)cn4)c4c(=O)[nH]ccc4n3)c(F)c2)CCC1 [I-240, 1-ethyl-N-[3-fluoro-4-[5-oxo-4-[(5-piperazin-1-yl-2-pyridyl)amino]-6H-1,6-naphthyridin-2-yl]phenyl] cyclobutane carboxamide]	6.00 to 7.00
COc1cc(-c2cc(Nc3ccc(C4CCNCC4)cn3)c3c(=O)[nH]ccc3n2)c(F)cc1C(=O)N1CCCCC1 [I-245, 2-[2-fluoro-5-methoxy-4-(piperidine-1-carbonyl)phenyl]-4-[[5-(4-piperidyl)-2-pyridyl]amino]-6H-1,6-naphthyridin-5-one]	≥ 7.00
CCC1(C(=O)N(C)c2ccc(-c3cc(Nc4ccc(N5CCNCC5)cn4)c4c(=O)[nH]ccc4n3)c(F)c2)CCC1 [I-247, 1-ethyl-N-[3-fluoro-4-[5-oxo-4-[(5-piperazin-1-yl-2-pyridyl)amino]-6H-1,6-naphthyridin-2-yl]phenyl]-N-methyl-cyclobutane-carboxamide]	≥ 7.00
O=c1[nH]ccc2nc(-c3cc4c(cc3F)CCC4N3CCCCC3)cc(Nc3ccc(N4CCC(O)CC4)cn3)c12 (stereo not drawn) [I-249, 2-[6-fluoro-3-(1-piperidyl)indan-5-yl]-4-[[5-(4-hydroxy-1-piperidyl)-2-pyridyl]amino]-6H-naphthyridin-5-one]	≥ 7.00
O=c1[nH]ccc2nc(-c3cc(CN4CC5(COC5)C4)ccc3F)cc(Nc3ccc(N4CCC(O)CC4)cn3)c12 [I-250]	≥ 7.00
O=c1[nH]ccc2nc(-c3cc(CN4CC5(CCCO5)C4)ccc3F)cc(Nc3ccc(N4CCC(O)CC4)cn3)c12 [I-255, 2-[2-fluoro-5-(5-oxa-2-azaspiro [3.4]octan-2-ylmethyl)phenyl]-4-[[5-(4-hydroxy-1-piperidyl)-2-pyridyl]amino]-6H-1,6-naphthyridin-5-one]	< 6.00
O=c1[nH]ccc2nc(-c3cc(CN4CC5(CCOC5)C4)ccc3F)cc(Nc3ccc(N4CCC(O)CC4)cn3)c12 [I-256, 2-[2-fluoro-5-(6-oxa-2-azaspiro [3.4]octan-2-ylmethyl)phenyl]-4-[[5-(4-hydroxy-1-piperidyl)-2-pyridyl]amino]-6H-1,6-naphthyridin-5-one]	< 6.00
O=c1[nH]ccc2nc(-c3ccc(OCc4ccncc4)cc3F)cc(Nc3cc(C4CCOC4)n[nH]3)c12 (stereo not drawn) [I-257, 2-[2-fluoro-4-(4-pyridyl-methoxy)phenyl]-4-[(3-THF-3-yl-1H-pyrazol-5-yl)amino]-6H-1,6-naphthyridin-5-one]	< 6.00
O=c1[nH]ccc2nc(-c3cc4c(cc3F)CCC4N3CC4(CCC4)C3)cc(Nc3ccc(N4CCC(O)CC4)cn3)c12 (stereo not drawn) [I-258, 2-[3-(2-azaspiro [3.3]heptan-2-yl)-6-fluoro-indan-5-yl]-4-[[5-(4-hydroxy-1-piperidyl)-2-pyridyl]amino]-6H-1,6-naphthyridin-5-one]	6.00 to 7.00
O=c1[nH]ccc2nc(-c3cc4c(cc3F)CCC4N3CC4(CCOC4)C3)cc(Nc3ccc(N4CCC(O)CC4)cn3)c12 (stereo not drawn) [I-260, 2-[6-fluoro-3-(6-oxa-2-azaspiro [3.4]octan-2-yl)indan-5-yl]-4-[[5-(4-hydroxy-1-piperidyl)-2-pyridyl]amino]-6H-1,6-naphthyridin-5-one]	6.00 to 7.00

The remaining lines, values ahead:

pIC50	SMILES
6.00 to 7.00	COc1cc(-c2cc(Nc3ccc(N4C[C@H]5COC[C@H]5C4)cn3)c3c(=O)[nH]ccc3n2)c(F)cc1C(=O)N1CCCCC1 [I-229, 4-[[5-[(3aR,6aS)-1,3,3a,4,6,6a-hexahydro-furo[3,4-c]pyrrol-5-yl]-2-pyridyl]amino]-2-[2-fluoro-5-methoxy-4-(piperidine-1-carbonyl)phenyl]-6H-1,6-naphthyridin-5-one]
≥ 7.00	COc1cc(-c2cc(Nc3ccc(N4CCC(O)CC4)cn3)c3c(=O)[nH]ccc3n2)c(F)cc1C(=O)N(C)C [I-230, 5-fluoro-4-[4-[[5-(4-hydroxy-1-piperidyl)-2-pyridyl]amino]-5-oxo-6H-1,6-naphthyridin-2-yl]-2-methoxy-N,N-dimethyl-benzamide]
6.00 to 7.00	O=C(c1cc(F)c(-c2cc(Nc3ccc(N4CCC(O)CC4)cn3)c3c(=O)[nH]ccc3n2)cc1F)N1CCCCC1 [I-231, 2-[2,5-difluoro-4-(piperidine-1-carbonyl)phenyl]-4-[[5-(4-hydroxy-1-piperidyl)-2-pyridyl]amino]-6H-1,6-naphthyridin-5-one]
≥ 7.00	COc1cc(-c2cc(Nc3ccc(N4CCCCC4)cn3)c3c(=O)[nH]ccc3n2)c(F)cc1C(=O)N1CCCCC1 [I-232, 2-[2-fluoro-5-methoxy-4-(piperidine-1-carbonyl)phenyl]-4-[[5-(1-piperidyl)-2-pyridyl]amino]-6H-1,6-naphthyridin-5-one]
6.00 to 7.00	CN(C)C1CCc2c1ccc(-c1cc(Nc3ccc(N4CCC(O)CC4)cn3)c3c(=O)[nH]ccc3n1)c2F (stereo not drawn) [I-237, 2-[1-(dimethyl-amino)-4-fluoro-indan-5-yl]-4-[[5-(4-hydroxy-1-piperidyl)-2-pyridyl]amino]-6H-1,6-naphthyridin-5-one]
6.00 to 7.00	CN(C)C1CCc2cc(-c3cc(Nc4ccc(N5CCC(O)CC5)cn4)c4c(=O)[nH]ccc4n3)c(F)cc21 (stereo not drawn) [I-238, 2-[1-(dimethyl-amino)-6-fluoro-indan-5-yl]-4-[[5-(4-hydroxy-1-piperidyl)-2-pyridyl]amino]-6H-1,6-naphthyridin-5-one]
6.00 to 7.00	COc1cc(-c2cc(Nc3ccc(N4CCC(O)CC4)cn3)c3c(=O)[nH]ccc3n2)c(F)c(F)c1C(=O)N1CCCCC1 [I-241, 2-[2,3-difluoro-5-methoxy-4-(piperidine-1-carbonyl)phenyl]-4-[[5-(4-hydroxy-1-piperidyl)-2-pyridyl]amino]-6H-1,6-naphthyridin-5-one]
6.00 to 7.00	COc1cc(-c2cc(Nc3ccc(C#N)cn3)c3c(=O)[nH]ccc3n2)c(F)cc1C(=O)N1CCCCC1 [I-242, 6-[[2-[2-fluoro-5-methoxy-4-(piperidine-1-carbonyl)phenyl]-5-oxo-6H-1,6-naphthyridin-4-yl]amino] pyridine-3-carbonitrile]
6.00 to 7.00	O=c1[nH]ccc2nc(-c3cc(C4CCCN4)ccc3F)cc(Nc3ccc(N4CCC(O)CC4)cn3)c12 (stereo not drawn) [I-243, 2-(2-fluoro-5-pyrrolidin-2-yl-phenyl)-4-[[5-(4-hydroxy-1-piperidyl)-2-pyridyl]amino]-6H-1,6-naphthyridin-5-one]
≥ 7.00	CN(C)C1CCc2cc(F)c(-c3cc(Nc4ccc(N5CCC(O)CC5)cn4)c4c(=O)[nH]ccc4n3)cc21 (stereo not drawn) [I-244, 2-[3-(dimethyl-amino)-6-fluoro-indan-5-yl]-4-[[5-(4-hydroxy-1-piperidyl)-2-pyridyl]amino]-6H-1,6-naphthyridin-5-one]
≥ 7.00	CC(=O)N1CCCC1c1ccc(F)c(-c2cc(Nc3ccc(N4CCC(O)CC4)cn3)c3c(=O)[nH]ccc3n2)c1 (stereo not drawn) [I-248, 2-[5-(1-acetyl-pyrrolidin-2-yl)-2-fluoro-phenyl]-4-[[5-(4-hydroxy-1-piperidyl)-2-pyridyl]amino]-6H-1,6-naphthyridin-5-one]
≥ 7.00	COc1cc(-c2cc(Nc3ccc(N4CCC(O)CC4)cn3)c3c(=O)[nH]ccc3n2)c(F)cc1C(=O)N1CC2C(C1)C2(F)F (stereo not drawn) [I-251, 2-[4-(6,6-difluoro-3-azabicyclo [3.1.0]hexane-3-carbonyl)-2-fluoro-5-methoxy-phenyl]-4-[[5-(4-hydroxy-1-piperidyl)-2-pyridyl]amino]-6H-1,6-naphthyridin-5-one]
≥ 7.00	O=c1[nH]ccc2nc(-c3cc4c(cc3F)C(N3CCOCC3)CC4)cc(Nc3ccc(N4CCC(O)CC4)cn3)c12 (stereo not drawn) [I-259, 2-(6-fluoro-1-morphoino-indan-5-y)-4-[[5-(4-hydroxy-1-piperidy)-2-pyridy]amino]-6H-1,6-naphthyridin-5-one]
≥ 7.00	CNC(C)(c1ccc(F)c(-c2cc(Nc3ccc(N4CCC(O)CC4)cn3)c3c(=O)[nH]ccc3n2)c1)C(F)(F)F (stereo not drawn) [I-263, 2-[2-fluoro-5-[2,2,2-trifluoro-1-methyl-1-(methyl-amino)ethyl]phenyl]-4-[[5-(4-hydroxy-1-piperidyl)-2-pyridyl]amino]-6H-1,6-naphthyridin-5-one]
